Test results from paper PMC2895808 (Vaccine, 2010).
pIC50: −log10 of the molar value. Ends that are not written are not given here.

How the values were obtained:
Assay in all cases: biochemical
HLA A*0202 = HLA A*0202 (Homo sapiens, UniProt P04439, D140Y/D185E/D98H/E176V/E277Q/G131W/G231S/I119L/I121R/I166T/I218V/L180W/L300P/L318F/N151K/N90K/P208A/P217A/Q67R/Q86G/Q94H/R138H/R169H/T345S)
HLA A*6802 = HLA A*6802 (Homo sapiens, UniProt P04439, A269V/D140Y/D185E/E176V/E277Q/E87N/F33Y/G231S/I121R/I166T/I218V/L180W/L300P/L318F/N151K/P208A/P217A/Q86R/R138H/R169H/S129P/T345S/V36M)
HLA A*0203 = HLA A*0203 (Homo sapiens, UniProt P04439, A173T/D140Y/D185E/D98H/E277Q/G131W/G231S/I119V/I121R/I166T/I218V/L180W/L300P/L318F/N151K/N90K/P208A/P217A/Q86G/Q94H/R138H/R169H/T345S)
HLA B*0702 = HLA B*0702 (Homo sapiens, UniProt P01889)
HLA B*3501 = HLA B*3501 (Homo sapiens, UniProt P01889, A329T/A93T/A95T/C349S/D201E/D98Y/E176V/E187L/E204Q/E69T/I218V/K202T/L119I/Q94N/R155S/R180L/S121R/S35A/S48A/T118I/V127L/V306I/V36M/Y140S/Y91F)
HLA B*3503 = HLA B*3503 (Homo sapiens, UniProt P01889, A329T/A93T/A95T/C349S/D201E/D98Y/E176V/E187L/E204Q/E69T/I218V/K202T/L119I/Q94N/R155S/R180L/S121R/S35A/S48A/T118I/V127L/V306I/V36M/Y140F/Y91F)
HLA B*4201 = HLA B*4201 (Homo sapiens, UniProt P01889, D138N/E176V/E187T/K202T/R180D)
HLA B*5101 = HLA B*5101 (Homo sapiens, UniProt P01889, A329T/A93T/A95T/C349S/D138N/D201E/D98Y/E187L/E204Q/E69T/G107R/I218V/K202T/L105A/L119W/N104I/Q94N/R106L/R155S/R180L/S101N/S121T/S35A/S48A/V306I/V36M/Y195H/Y91F)
HLA B*5301 = HLA B*5301 (Homo sapiens, UniProt P01889, A329T/A93T/A95T/C349S/D201E/D98Y/E176V/E187L/E204Q/E69T/G107R/I218V/K202T/L105A/L119I/N104I/Q94N/R106L/R155S/R180L/S101N/S121R/S35A/S48A/T118I/V127L/V306I/V36M/Y140S/Y91F)
HLA B*5401 = HLA B*5401 (Homo sapiens, UniProt P01889, A329T/C349S/D138N/D201E/E176V/E187T/E204Q/E69G/I76V/K202T/L119W/R155S/R180L/S121T/S35A/S48A/V127L/V306I/V36M/Y140L)

Molecule	pIC50 (HLA A*0202)	pIC50 (HLA A*6802)	pIC50 (HLA A*0203)	pIC50 (HLA B*0702)	pIC50 (HLA B*3501)	pIC50 (HLA B*3503)	pIC50 (HLA B*4201)	pIC50 (HLA B*5101)	pIC50 (HLA B*5301)	pIC50 (HLA B*5401)
CSCC[C@H](NC(=O)[C@H](Cc1ccccc1)NC(=O)[C@@H](NC(=O)[C@@H](NC(=O)[C@H](Cc1ccccc1)NC(=O)[C@@H](NC(=O)[C@@H](N)C(C)C)C(C)C)C(C)C)C(C)C)C(=O)NCC(=O)N[C@H](C(=O)O)C(C)C [Peptide 7103.0001]	5.46	7.41	–	–	–	–	–	–	–	–
CC(C)C[C@H](NC(=O)[C@H](Cc1ccccc1)NC(=O)[C@@H](NC(=O)[C@@H](NC(=O)[C@H](Cc1ccccc1)NC(=O)[C@@H]1CCCN1C(=O)[C@@H](NC(=O)[C@H](CC(C)C)NC(=O)[C@@H](N)Cc1ccccc1)C(C)C)C(C)C)C(C)C)C(=O)O [Peptide 7103.0003]	> 10.00	8.82	9.96	–	–	–	–	–	–	–
HPGSVNEFDF [HF10]	–	–	–	5.44	5.68	4.94	6.06	4.83	5.26	6.07
